Assay results from PubChem BioAssay AID248 (DTP/NCI, 2004).
Toxic doses and inconclusive results are not listed. Cut-off read from the data, not from the text of the source: active = T/C of 150% or more; inactive = T/C below 125%.

System: L1210 leukemia ip in BDF1 mice, survival T/C
Assay: NCI In Vivo Anticancer Drug Screen. Data for tumor model L1210 Leukemia (intraperitoneal) in B6D2F1 (BDF1) mice
Settings: endpoint: mean survival time, higher = longer survival
Summary of the method: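 Mice bearing the transplanted tumor received compound or vehicle. Survival of the treated group was divided by that of the vehicle-treated control group to give the ratio.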

[1] = dose: 100.0 mg/kg/injection, schedule: Q04DX002 (ip), vehicle: saline
[2] = dose: 100.0 mg/kg/injection, schedule: Q01DX009 (ip), vehicle: saline with Tween-80
[3] = dose: 200.0 mg/kg/injection, schedule: Q01DX009 (ip), vehicle: saline with Tween-80
[4] = dose: 400.0 mg/kg/injection, schedule: Q01DX009 (ip), vehicle: saline with Tween-80
[5] = dose: 100.0 mg/kg/injection, schedule: Q04DX003 (ip), vehicle: saline
[6] = dose: 200.0 mg/kg/injection, schedule: Q04DX003 (ip), vehicle: saline
[7] = dose: 400.0 mg/kg/injection, schedule: Q04DX003 (ip), vehicle: saline
[8] = dose: 100.0 mg/kg/injection, schedule: Q04DX003 (ip), vehicle: Klucel (hydroxypropylcellulose) (HPC)
[9] = dose: 200.0 mg/kg/injection, schedule: Q04DX003 (ip), vehicle: Klucel (hydroxypropylcellulose) (HPC)
[10] = dose: 400.0 mg/kg/injection, schedule: Q04DX003 (ip), vehicle: Klucel (hydroxypropylcellulose) (HPC)
[11] = dose: 100.0 mg/kg/injection, schedule: Q04DX002 (ip), vehicle: Klucel (hydroxypropylcellulose) (HPC)
[12] = dose: 200.0 mg/kg/injection, schedule: Q04DX002 (ip), vehicle: Klucel (hydroxypropylcellulose) (HPC)
[13] = dose: 400.0 mg/kg/injection, schedule: Q04DX002 (ip), vehicle: Klucel (hydroxypropylcellulose) (HPC)
[14] = dose: 100.0 mg/kg/injection, schedule: Q01DX001 (ip), vehicle: saline
[15] = dose: 200.0 mg/kg/injection, schedule: Q01DX001 (ip), vehicle: saline
[16] = dose: 400.0 mg/kg/injection, schedule: Q01DX001 (ip), vehicle: saline
[17] = dose: 100.0 mg/kg/injection, schedule: Q01DX009 (ip), vehicle: Klucel (hydroxypropylcellulose) (HPC)
[18] = dose: 200.0 mg/kg/injection, schedule: Q01DX009 (ip), vehicle: Klucel (hydroxypropylcellulose) (HPC)
[19] = dose: 100.0 mg/kg/injection, schedule: Q04DX003 (ip), vehicle: saline with Tween-80
[20] = dose: 200.0 mg/kg/injection, schedule: Q04DX003 (ip), vehicle: saline with Tween-80
[21] = dose: 400.0 mg/kg/injection, schedule: Q04DX003 (ip), vehicle: saline with Tween-80
[22] = dose: 50.0 mg/kg/injection, schedule: Q01DX009 (ip), vehicle: Klucel (hydroxypropylcellulose) (HPC)
[23] = dose: 50.0 mg/kg/injection, schedule: Q01DX009 (ip), vehicle: saline
[24] = dose: 100.0 mg/kg/injection, schedule: Q01DX009 (ip), vehicle: saline
[25] = dose: 400.0 mg/kg/injection, schedule: Q01DX009 (ip), vehicle: Klucel (hydroxypropylcellulose) (HPC)

Measured: T/C

O=S(=O)(O)SCC1=NCCN1
inactive: dose: 25.0 mg/kg/injection, schedule: Q04DX002 (ip), vehicle: saline 103 % of control | dose: 50.0 mg/kg/injection, schedule: Q04DX002 (ip), vehicle: saline 93 % of control | [1] 98 % of control

O=C(O)c1cccc2c1C(=O)c1cc([N+](=O)[O-])ccc1-2
inactive: dose: 75.0 mg/kg/injection, schedule: Q01DX001 (ip), vehicle: carboxymethylcellulose (CMC) 101 % of control | dose: 150.0 mg/kg/injection, schedule: Q01DX001 (ip), vehicle: carboxymethylcellulose (CMC) 105 % of control

CCCCC1CCCCC1
inactive: [2] 106 % of control | [3] 98 % of control | [4] 96 % of control

O=C(O)C1CC(Br)C2CC1C(=O)O2 (stereo not drawn)
inactive: [5] 91 % of control | [6] 105 % of control | [7] 97 % of control

CCCCCCCCCCCCC/C=C/CC(CC(=O)O)C(=O)Nc1cccc2c[n+](CC(=O)c3ccc(NC(C)=O)cc3)ccc12 (stereo not drawn)
inactive: [8] 111 % of control | [9] 101 % of control | [10] 105 % of control

O=C(C(Cl)(Cl)Cl)C(Cl)(Cl)Cl
inactive: dose: 75.0 mg/kg/injection, schedule: Q01DX009 (ip), vehicle: saline with Tween-80 90 % of control | [11] 113 % of control | dose: 150.0 mg/kg/injection, schedule: Q01DX009 (ip), vehicle: saline with Tween-80 93 % of control | [12] 113 % of control | dose: 300.0 mg/kg/injection, schedule: Q01DX009 (ip), vehicle: saline with Tween-80 86 % of control | [13] 87 % of control

O=C(Nc1cccc(F)c1)Oc1ccc(OCc2ccccc2)cc1
inactive: [1] 101 % of control | dose: 200.0 mg/kg/injection, schedule: Q04DX002 (ip), vehicle: saline 90 % of control | dose: 400.0 mg/kg/injection, schedule: Q04DX002 (ip), vehicle: saline 90 % of control

O=c1[nH]ncc2ccc([N+](=O)[O-])cc12
inactive: dose: 75.0 mg/kg/injection, schedule: Q01DX001 (ip), vehicle: other 103 % of control | dose: 150.0 mg/kg/injection, schedule: Q01DX001 (ip), vehicle: other 101 % of control

Cc1ccc(SCc2c(COc3ccc(Cl)cc3)sc3ccc(Cl)cc23)cc1
inactive: [2] 102 % of control | [3] 119 % of control | [4] 97 % of control

COC(=O)/C=C(\C)Nc1ccc(Cc2ccc(NC(C)=O)cc2)cc1
inactive: [14] 95 % of control | [15] 98 % of control

c1cnc2c3c(ccc2c1)CN(C1CCCCC1)CO3
inactive: dose: 100.0 mg/kg/injection, schedule: Q04DX003 (ip), vehicle: saline sonified 94 % of control | dose: 200.0 mg/kg/injection, schedule: Q04DX003 (ip), vehicle: saline sonified 91 % of control

CCOC(=O)N1C2CCC(C2)N1C(=O)OCC
inactive: [14] 103 % of control | [15] 100 % of control | [16] 103 % of control

CC1=Nc2cc(C)c(C)cc2N=C(C)C1
inactive: [17] 96 % of control | [8] 93 % of control | [18] 98 % of control | [9] 97 % of control

O=c1c(N=Nc2ccc(Br)cc2)c(O)n(-c2ccccc2Cl)c(=S)n1-c1ccccc1
inactive: dose: 75.0 mg/kg/injection, schedule: Q01DX001 (ip), vehicle: Klucel (hydroxypropylcellulose) (HPC) 90 % of control | dose: 150.0 mg/kg/injection, schedule: Q01DX001 (ip), vehicle: Klucel (hydroxypropylcellulose) (HPC) 101 % of control

CCn1c2ccccc2c2cc(N=C3C(=O)N(C)c4ccccc43)ccc21
inactive: dose: 100.0 mg/kg/injection, schedule: Q01DX001 (ip), vehicle: carboxymethylcellulose (CMC) 95 % of control | dose: 200.0 mg/kg/injection, schedule: Q01DX001 (ip), vehicle: carboxymethylcellulose (CMC) 95 % of control | dose: 400.0 mg/kg/injection, schedule: Q01DX001 (ip), vehicle: carboxymethylcellulose (CMC) 95 % of control

COC(=O)C1=C(C)NC(=O)NC1c1ccc(OC)cc1 (stereo not drawn)
inactive: [19] 103 % of control | [20] 90 % of control | [21] 90 % of control

CCCC(C)Cc1ccc(C(C)=O)cc1 (stereo not drawn)
inactive: [22] 101 % of control | [17] 106 % of control | [8] 104 % of control | [18] 89 % of control | [9] 105 % of control | [10] 105 % of control

O=c1cc[n]2c(n1)[O][Hg]2
inactive: dose: 5.0 mg/kg/injection, schedule: Q01DX001 (ip), vehicle: carboxymethylcellulose (CMC) 98 % of control | dose: 10.0 mg/kg/injection, schedule: Q01DX001 (ip), vehicle: carboxymethylcellulose (CMC) 98 % of control

O=S(=O)(O)c1cc(O)c2cc(Nc3ccccc3)ccc2c1
inactive: [23] 96 % of control | [24] 93 % of control | [5] 89 % of control | dose: 200.0 mg/kg/injection, schedule: Q01DX009 (ip), vehicle: saline 102 % of control | [6] 100 % of control

COc1ccc(Br)c(CCC(C)C)c1OC
inactive: [17] 92 % of control | [8] 108 % of control | [18] 95 % of control | [9] 108 % of control | [25] 101 % of control | [10] 104 % of control

N#CCN(CC#N)CCN(CC#N)CC#N
inactive: [17] 95 % of control | [8] 103 % of control | [18] 92 % of control | [9] 90 % of control | [25] 93 % of control | [10] 105 % of control

CCCNC(=S)NC
inactive: [8] 90 % of control | [9] 95 % of control | [10] 109 % of control

CC(C)CCCC(C)C1CCC2C3CC=C4CC(C(=O)NN)CCC4(C)C3CCC12C (stereo not drawn)
inactive: [19] 96 % of control | [20] 96 % of control | [21] 98 % of control

CC(N)C(O)c1cccc(O)c1 (stereo not drawn)
inactive: dose: 6.25 mg/kg/injection, schedule: Q01DX009 (ip), vehicle: saline 117 % of control | dose: 12.5 mg/kg/injection, schedule: Q01DX009 (ip), vehicle: saline 100 % of control | dose: 25.0 mg/kg/injection, schedule: Q01DX009 (ip), vehicle: saline 105 % of control | dose: 25.0 mg/kg/injection, schedule: Q04DX003 (ip), vehicle: saline 108 % of control | [23] 100 % of control | dose: 50.0 mg/kg/injection, schedule: Q04DX003 (ip), vehicle: saline 105 % of control | [24] 117 % of control | [5] 97 % of control

N=C(OC1CCCCC1)N1CCOCC1
inactive: dose: 22.0 mg/kg/injection, schedule: Q01DX Z (ip), vehicle: saline 100 % of control | dose: 33.0 mg/kg/injection, schedule: Q01DX Z (ip), vehicle: saline 102 % of control | dose: 50.0 mg/kg/injection, schedule: Q01DX Z (ip), vehicle: saline 106 % of control

Clc1ccc(-c2nn[nH]n2)cc1
inactive: [11] 96 % of control | [12] 93 % of control

CC(C(N)=O)N1C(=O)C2C3CCC(O3)C2C1=O (stereo not drawn)
inactive: [5] 97 % of control | [6] 97 % of control | [7] 97 % of control

O=C(O)/C=C\C=C\c1ccccc1
inactive: [14] 89 % of control | [15] 94 % of control | [16] 96 % of control

O=C1/C(=C\c2cccc3ccccc23)N2CCC1CC2
inactive: [11] 100 % of control | [12] 96 % of control | [13] 104 % of control

C/C=C/C[P+](c1ccccc1)(c1ccccc1)c1cccc2ccccc12
inactive: dose: 25.0 mg/kg/injection, schedule: Q04DX002 (ip), vehicle: saline with Tween-80 94 % of control

O=C(NNC(=O)c1cccc2ccccc12)c1cc(Br)ccc1Br
inactive: [5] 97 % of control | [6] 87 % of control | [7] 100 % of control

C#CCCCCC#C
inactive: [22] 98 % of control | [17] 106 % of control | [8] 98 % of control | [18] 97 % of control | [9] 91 % of control | [10] 86 % of control

COc1ccc(C=Nc2ccccc2)cc1
inactive: [19] 103 % of control | [20] 97 % of control | [21] 97 % of control
